Data on 26 compounds can be found in patent publication US20030162824A1, “Methods of treating or preventing a cardiovascular condition using a cyclooxygenase-1 inhibitor” (priority 2001, published 2003).

Usually IC50 stands for the point on the concentration scale where inhibition reaches its midpoint.

One test deals with T1, hCox-1 (Homo sapiens, UniProt P23219).
T1 construct: A 2.0 kb fragment containing the coding region of either human or murine COX-1 or human or murine COX-2; made in house; host or cells: SF9 insect cells (baculovirus, pVL1393)
The experiment in a line: Evaluation of COX-1 activity in vitro (recombinant enzyme, PGE2 ELISA). It counts as biochemical.

Test [1] concerns apoE knockout mice fed a 1% cholesterol diet. Briefly: Effect of cyclooxygenase inhibition on the development of atherosclerosis in cholesterol-fed apoE knockout mice. The conditions noted are these: for extent of lesion development: aortae after 10 weeks, vehicle 25.8±4.5%.
Method: The role of cyclooxygenase-1 and cyclooxygenase-2 on the development of atherosclerosis in apoE knockout mice fed a 1% cholesterol diet was evaluated. […] ApoE^−/− fed a normal chow (n=20) and wildtype littermates (n=40) were used as controls for the study. Twenty-four hour urine samples were collected and the aortae harvested following 10 weeks of treatment.
The target in another test is T2, hCox-2 (Homo sapiens, UniProt P35354).
T2 construct: A 2.0 kb fragment containing the coding region of either human or murine COX-1 or human or murine COX-2; made in house; host or cells: SF9 insect cells (baculovirus, pVL1393)
T2 sequence (P35354 18-604): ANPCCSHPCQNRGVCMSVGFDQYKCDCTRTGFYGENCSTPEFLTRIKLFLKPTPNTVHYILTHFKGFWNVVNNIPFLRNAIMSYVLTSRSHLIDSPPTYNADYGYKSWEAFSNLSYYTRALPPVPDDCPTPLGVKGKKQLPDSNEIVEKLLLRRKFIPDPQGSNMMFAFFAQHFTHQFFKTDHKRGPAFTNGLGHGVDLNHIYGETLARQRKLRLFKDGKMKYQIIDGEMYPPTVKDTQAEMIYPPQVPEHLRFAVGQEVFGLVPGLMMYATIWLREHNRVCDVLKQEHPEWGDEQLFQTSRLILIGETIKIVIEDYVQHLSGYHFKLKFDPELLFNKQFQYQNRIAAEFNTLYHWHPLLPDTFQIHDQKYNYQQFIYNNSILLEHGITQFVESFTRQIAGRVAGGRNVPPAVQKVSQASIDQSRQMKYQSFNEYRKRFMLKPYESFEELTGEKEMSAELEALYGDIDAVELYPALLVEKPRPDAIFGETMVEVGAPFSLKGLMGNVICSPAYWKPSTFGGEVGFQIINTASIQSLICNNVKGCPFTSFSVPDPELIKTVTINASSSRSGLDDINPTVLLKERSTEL
Briefly: Evaluation of COX-2 activity in vitro (recombinant enzyme, PGE2 ELISA). It counts as biochemical. In general terms: In an ELISA, binding on a coated surface is turned into a signal by an enzyme label.

[2] abbreviates: COX-1 inhibitor 15 mg/kg daily, COX-2 inhibitor 6 mg/kg.
[3] abbreviates: 10 weeks, COX-1 inhibitor 15 mg/kg daily, COX-2 inhibitor 6 mg/kg.

Where “and” joins values, the source holds several entries; their conditions need not be identical. Equal values may be shown once. Where only a bound is given, the exact number is not on record here.

T1 sequence (P23219 24-599): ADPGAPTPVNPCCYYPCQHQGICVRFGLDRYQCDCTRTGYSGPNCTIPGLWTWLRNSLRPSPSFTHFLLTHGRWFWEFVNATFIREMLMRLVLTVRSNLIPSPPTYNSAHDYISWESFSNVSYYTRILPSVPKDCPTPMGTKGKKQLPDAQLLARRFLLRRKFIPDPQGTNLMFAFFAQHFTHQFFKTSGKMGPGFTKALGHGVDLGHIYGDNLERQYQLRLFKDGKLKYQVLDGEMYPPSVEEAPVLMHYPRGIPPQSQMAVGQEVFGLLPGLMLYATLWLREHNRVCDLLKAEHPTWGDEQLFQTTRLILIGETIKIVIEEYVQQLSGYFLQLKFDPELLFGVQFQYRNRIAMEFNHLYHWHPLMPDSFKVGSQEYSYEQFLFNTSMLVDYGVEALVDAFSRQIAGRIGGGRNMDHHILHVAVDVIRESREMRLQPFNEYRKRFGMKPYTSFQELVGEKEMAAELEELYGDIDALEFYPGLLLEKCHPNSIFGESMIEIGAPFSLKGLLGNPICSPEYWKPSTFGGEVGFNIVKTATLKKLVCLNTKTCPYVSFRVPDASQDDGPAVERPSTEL
Method for hCox-1: (§1) Recombinant baculoviruses were isolated by transfecting 4 μg of baculovirus transfer vector DNA into SF9 insect cells (2×10^8) along with 200 ng of linearized baculovirus plasmid DNA by the calcium phosphate method.
(§2) Recombinant viruses were purified by three rounds of plaque purification and high titer (10^7-10^8 pfu/mL) stocks of virus were prepared. For large scale production, SF9 insect cells were infected in 10 liter fermentors (0.5×10^6/mL) with the recombinant baculovirus stock such that the multiplicity of infection was 0.1. […] The homogenate was centrifuged at 10,000×G for 30 minutes, and the resultant supernatant was stored at −80° C. before being assayed for COX activity.
(§3) COX activity was assayed as PGE2 formed/μg protein/time using an ELISA to detect the prostaglandin released. CHAPS-solubilized insect cell membranes containing the appropriate COX enzyme were incubated in a potassium phosphate buffer (50 mM, pH 8.0) containing epinephrine, phenol, and heme with the addition of arachidonic acid (10 μM). Compounds were pre-incubated with the enzyme for 10-20 minutes prior to the addition of arachidonic acid. […] The PGE2 formed was measured by standard ELISA technology (Cayman Chemical).
Method for hCox-2: as §1, §2, §3

Consider `COc1ccc(-n2nc(CO[N+](=O)[O-])cc2-c2ccc(Cl)cc2)cc1` [Compound 29], for which the half-inhibitory concentration (IC50) on hCox-1 is 0.242 µM.
For `COc1ccc(-n2nc(C(F)(F)F)cc2-c2ccc(Cl)cc2)cc1` [Compound 1], in test [1] (24 h urine after 10 weeks of treatment, COX-1 inhibitor 15 mg/kg daily, vehicle 20.7±4.02), the “Urinary TXB2 excretion” value is 2.63 ± 0.59 ng/mL. Besides, the “extent of lesion development” value in test [1] (setting [2]) was 4.6±0.4%.
Regarding `COc1ccc(-n2nc(C(=O)O)cc2-c2ccc(Cl)cc2)cc1` [Compound 4, 3-carboxy-5-(4-chlorophenyl)-1-(4-methoxyphenyl)pyrazole], the half-maximal inhibitory concentration (IC50) is 55.7 µM on hCox-1 and above 100 µM at hCox-2.
Consider `COc1ccc(-n2nc(C(F)F)cc2-c2ccc(Cl)cc2)cc1` [Compound 2, 5-(4-chlorophenyl)-3-(difluoromethyl)-1-(4-methoxyphenyl)pyrazole], for which the IC50 was < 0.137 µM and 0.021 µM on hCox-1; above 100 µM on hCox-2.
For the compound `O=[N+]([O-])c1ccc(-n2nc(C(F)(F)F)cc2-c2ccc(Cl)cc2)cc1` [Compound 22], the IC50 on hCox-1 is 0.81 µM; on hCox-2 it was above 100 µM.
In the case of `FC(F)(F)c1cc(-c2ccccc2)n(-c2ccc(Cl)cc2)n1` [Compound 7, 1-(4-chlorophenyl)-5-phenyl-3-(trifluoromethyl)pyrazole], the figures for the IC50 at hCox-1 and at hCox-2 were 0.085 µM and above 1000 µM, respectively.
The like results for `COc1ccc2c(c1)CSc1c(C(F)(F)F)nn(-c3ccc(Cl)cc3)c1-2` [Compound 27] were, in that order, 0.141 µM and above 100 µM.
For the compound `COC(=O)c1nn(-c2ccc(OC)cc2)c2c1CCc1cc(OC)ccc1-2` [Compound 18], the concentration for half-maximal inhibition (IC50) was 0.442 µM on hCox-1 and above 100 µM on hCox-2.
Turning to `FC(F)(F)c1cc(-c2ccc(Cl)cc2)n(-c2ccccc2)n1` [Compound 9, 5-(4-chlorophenyl)-1-phenyl-3-(trifluoromethyl)pyrazole], the 50% inhibitory concentration (IC50) at hCox-1 is 0.123 µM; at hCox-2, above 1000 µM.
The like results for `COc1ccc(-n2nc(CCC(=O)N(C)O)cc2-c2ccc(Cl)cc2)cc1` [Compound 20] were, in that order, 0.027 µM and above 1000 µM.
In the case of `O=[N+]([O-])c1ccc(-n2nc(C(F)F)cc2-c2ccc(Cl)cc2)cc1` [Compound 23], the IC50 was 0.676 µM at hCox-1 and above 100 µM on hCox-2.
The like results for `COc1ccc(-n2nc(C(=O)Nc3ccc(N=[N+]=[N-])cc3)cc2-c2ccc(Cl)cc2)cc1` [Compound 32] were, in that order, 0.012 µM and at least 1000 µM.
The like results for `FC(F)(F)c1cc(-c2ccc(Br)cc2)n(-c2ccccc2)n1` [Compound 12, 5-(4-bromophenyl)-1-phenyl-3-(trifluoromethyl)pyrazole] were, in that order, 0.435 µM and above 500 µM.
Take `NS(=O)(=O)c1ccc(-n2nc(C(F)(F)F)cc2-c2ccc(Cl)cc2)cc1` [selective COX-2 inhibitor, 4-[5-(4-chlorophenyl)-3-(trifluoromethyl)-1H-pyrazol-1-yl]benzenesulfonamide, reference compound]: the “CD41 staining of lesions (platelet deposition)” value in test [1] (setting [3]) is given as “no effect”. The “effect on TXB2 excretion (in words)” value in test [1] (10 weeks, COX-2 inhibitor 6 mg/kg) is recorded as “no effect”. For the same compound, in test [1] (setting [2]), the “extent of lesion development” value was found to be 27.9±1.8%.
Take `FC(F)(F)c1cc(-c2cccc(Br)c2)n(-c2ccccc2)n1` [Compound 13]: the IC50 at hCox-1 was 3.3 µM; at hCox-2 it was above 100 µM.
On to `COc1ccc(-n2nc(C(F)(F)F)cc2-c2ccc(Cl)cc2)cc1`, for which the “CD41 staining of lesions (platelet deposition)” value in test [1] (setting [3]) was “markedly attenuated”.
Take `COc1ccc(-c2cc(C(F)(F)F)nn2-c2ccc(C)cc2)cc1C` [Compound 31]: the concentration for half-maximal inhibition (IC50) on hCox-1 came to 0.287 µM; at hCox-2 it was 67.1 µM.
Take `COc1ccc(-n2nc(C(F)F)cc2-c2ccc(SC)cc2)cc1` [Compound 19]: the concentration for half-maximal inhibition (IC50) on hCox-1 is 0.126 µM; at hCox-2 it was above 100 µM.
For `COC(=O)c1ccc(-n2nc(C(F)(F)F)cc2-c2ccc(C)cc2)cc1` [Compound 26], the figures for the 50% inhibitory concentration (IC50) at hCox-1 and on hCox-2 were 0.31 µM and above 100 µM, respectively.
`NS(=O)(=O)c1ccc(-n2nc(C(=O)O)cc2-c2ccccc2)cc1` [Compound 24]: on hCox-1, the half-maximal inhibitory concentration (IC50) was at most 0.137 µM.
Take `Cc1ccc(-c2cc(C(F)(F)F)nn2-c2ccc(C(F)(F)F)cc2)cc1` [Compound 30]: the IC50 was 0.108 µM at hCox-1 and above 100 µM at hCox-2.
Regarding `FC(F)(F)c1cc(-c2ccc(I)cc2)n(-c2ccccc2)n1` [Compound 15, 5-(4-iodophenyl)-1-phenyl-3-(trifluoromethyl)pyrazole], the IC50 at hCox-1 is 0.65 µM; on hCox-2 it was above 100 µM.
In the same order, the values of `Cc1ccc(-c2cc(C(F)(F)F)nn2-c2ccc(Br)cc2)cc1` [Compound 16, 1-(4-bromophenyl)-5-(4-methylphenyl)-3-(trifluoromethyl)pyrazole] are below 0.137 µM and 0.424 µM.
`COc1ccc(-c2cc(C(F)F)nn2-c2ccc(Cl)cc2)cc1F` [Compound 28]: the values for the half-maximal inhibitory concentration (IC50) at hCox-1 and at hCox-2 were 0.643 µM and 23 µM, respectively.
On to `O=[N+]([O-])c1ccc(-c2cc(C(F)F)nn2-c2ccc(F)cc2)cc1` [Compound 21], for which the IC50 at hCox-1 was 0.647 µM; at hCox-2, 22.8 µM.
Take `COC(=O)c1cc(-c2ccc(Cl)cc2)n(-c2ccc(OC)cc2)n1` [Compound 3, 5-(4-chlorophenyl)-3-(methoxycarbonyl)-1-(4-methoxyphenyl)pyrazole]: the 50% inhibitory concentration (IC50) on hCox-1 was 0.284 µM; on hCox-2 it was above 100 µM.
